Assay results: ChEMBL document CHEMBL1201862, “PubChem BioAssay data set” (2004)
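Grown in 96-well plates, cells were treated for 48 hours with each compound at five concentrations. Insufficient inhibition: endpoint recorded as highest concentration tested. GI50 is the concentration that inhibits growth by half.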 Calls of active or inactive are those of the source. No stated cut-off is given here; in the data, active = GI50 up to about 1.1 µM and inactive = higher.

How the values were obtained:
Assay in all cases: NCI-60 cell line screen, 48 h
786-0 = tested on: 786-0
A498 = tested on: A498
A549 = tested on: A549
ACHN = tested on: ACHN
BT-549 = tested on: BT-549
CAKI-1 = tested on: CAKI-1
CCRF-CEM = tested on: CCRF-CEM
COLO 205 = tested on: COLO 205
DU-145 = tested on: DU-145
EKVX = tested on: EKVX
HCC 2998 = tested on: HCC 2998
HCT-116 = tested on: HCT-116
HCT-15 = tested on: HCT-15
HL-60 = tested on: HL-60
HOP-62 = tested on: HOP-62
HOP-92 = tested on: HOP-92
HT-29 = tested on: HT-29
IGROV-1 = tested on: IGROV-1
K562 = tested on: K562
KM12 = tested on: KM12
M14 = tested on: M14
MCF7 = tested on: MCF7
MDA-MB-231 = tested on: MDA-MB-231
MDA-MB-435 = tested on: MDA-MB-435
MDA-N = tested on: MDA-N
MOLT-4 = tested on: MOLT-4
Malme-3M = tested on: Malme-3M
NCI-H226 = tested on: NCI-H226
NCI-H23 = tested on: NCI-H23
NCI-H460 = tested on: NCI-H460
NCI-H522 = tested on: NCI-H522
NCI/ADR-RES = tested on: NCI/ADR-RES
OVCAR-3 = tested on: OVCAR-3
OVCAR-4 = tested on: OVCAR-4
OVCAR-5 = tested on: OVCAR-5
OVCAR-8 = tested on: OVCAR-8
PC-3 = tested on: PC-3
RPMI-8226 = tested on: RPMI-8226
RXF 393 = tested on: RXF 393
SF-268 = tested on: SF-268
SF-295 = tested on: SF-295
SF-539 = tested on: SF-539
SK-MEL-28 = tested on: SK-MEL-28
SK-MEL-2 = tested on: SK-MEL-2
SK-OV-3 = tested on: SK-OV-3
SN12C = tested on: SN12C
SNB-19 = tested on: SNB-19
SNB-75 = tested on: SNB-75
SR = tested on: SR
SW-620 = tested on: SW-620
T47D = tested on: T47D
U-251 = tested on: U-251
UACC-257 = tested on: UACC-257
UACC-62 = tested on: UACC-62
UO-31 = tested on: UO-31
Hs-578T = tested on: Hs-578T
SK-MEL-5 = tested on: SK-MEL-5
TK-10 = tested on: TK-10

SMILES: O=c1c2cc(-c3ccccc3)cnc2sn1-c1ccc(Oc2ccccc2)cc1
- GI50 (786-0): 17.3 µM (inactive)
- GI50 (A498): 25.3 µM (inactive)
- GI50 (A549): 19.5 µM (inactive)
- GI50 (ACHN): 66.8 µM (inactive)
- GI50 (BT-549): 23.2 µM (inactive)
- GI50 (CAKI-1): 61.9 µM (inactive)
- GI50 (CCRF-CEM): 27.3 µM (inactive)
- GI50 (COLO 205): > 100 µM (inactive)
- GI50 (DU-145): 80.9 µM (inactive)
- GI50 (EKVX): 68.5 µM (inactive)
- GI50 (HCC 2998): 73.5 µM (inactive)
- GI50 (HCT-116): 51.9 µM (inactive)
- GI50 (HCT-15): 56.5 µM
- GI50 (HL-60): > 100 µM (inactive)
- GI50 (HOP-62): 22.1 µM (inactive)
- GI50 (HOP-92): 30.7 µM (inactive)
- GI50 (HT-29): 23.4 µM (inactive)
- GI50 (IGROV-1): 32.6 µM (inactive)
- GI50 (K562): > 100 µM (inactive)
- GI50 (KM12): 48.5 µM (inactive)
- GI50 (M14): 46.3 µM (inactive)
- GI50 (MCF7): 52.5 µM (inactive)
- GI50 (MDA-MB-231): 14.5 µM (inactive)
- GI50 (MDA-MB-435): 41.1 µM (inactive)
- GI50 (MDA-N): 28.4 µM (inactive)
- GI50 (MOLT-4): 49.2 µM (inactive)
- GI50 (Malme-3M): 92.5 µM (inactive)
- GI50 (NCI-H226): 87.5 µM (inactive)
- GI50 (NCI-H23): 61 µM (inactive)
- GI50 (NCI-H460): > 100 µM (inactive)
- GI50 (NCI-H522): 34.4 µM (inactive)
- GI50 (NCI/ADR-RES): 27 µM (inactive)
- GI50 (OVCAR-3): 31.5 µM (inactive)
- GI50 (OVCAR-4): 19.9 µM (inactive)
- GI50 (OVCAR-5): 65.2 µM (inactive)
- GI50 (OVCAR-8): 26.9 µM (inactive)
- GI50 (PC-3): 20.4 µM (inactive)
- GI50 (RPMI-8226): 53.1 µM (inactive)
- GI50 (RXF 393): 19.1 µM (inactive)
- GI50 (SF-268): 51.4 µM (inactive)
- GI50 (SF-295): 31 µM (inactive)
- GI50 (SF-539): 50.4 µM (inactive)
- GI50 (SK-MEL-28): > 100 µM (inactive)
- GI50 (SK-MEL-2): > 100 µM (inactive)
- GI50 (SK-OV-3): > 100 µM (inactive)
- GI50 (SN12C): 31.3 µM (inactive)
- GI50 (SNB-19): 19.2 µM (inactive)
- GI50 (SNB-75): 32 µM (inactive)
- GI50 (SR): > 100 µM (inactive)
- GI50 (SW-620): 37.8 µM (inactive)
- GI50 (T47D): 63 µM (inactive)
- GI50 (U-251): 23.6 µM (inactive)
- GI50 (UACC-257): 67 µM (inactive)
- GI50 (UACC-62): 26.9 µM (inactive)
- GI50 (UO-31): 47 µM (inactive)

SMILES: O=[N+]([O-])c1nccn1CC1OC(n2ccnc2[N+](=O)[O-])C(O)C(O)C1O (stereo not drawn)
- GI50 (786-0): > 100 µM (inactive)
- GI50 (A498): > 100 µM (inactive)
- GI50 (A549): > 100 µM (inactive)
- GI50 (ACHN): > 100 µM (inactive)
- GI50 (BT-549): > 100 µM (inactive)
- GI50 (CCRF-CEM): > 100 µM (inactive)
- GI50 (COLO 205): > 100 µM (inactive)
- GI50 (EKVX): > 100 µM (inactive)
- GI50 (HCC 2998): > 100 µM (inactive)
- GI50 (HCT-116): > 100 µM (inactive)
- GI50 (HL-60): > 100 µM (inactive)
- GI50 (HOP-62): > 100 µM (inactive)
- GI50 (HOP-92): > 100 µM (inactive)
- GI50 (HT-29): > 100 µM (inactive)
- GI50 (Hs-578T): > 100 µM (inactive)
- GI50 (K562): > 100 µM (inactive)
- GI50 (KM12): > 100 µM (inactive)
- GI50 (M14): > 100 µM (inactive)
- GI50 (MCF7): > 100 µM (inactive)
- GI50 (MDA-N): > 100 µM (inactive)
- GI50 (MOLT-4): > 100 µM (inactive)
- GI50 (Malme-3M): > 100 µM (inactive)
- GI50 (NCI-H226): > 100 µM (inactive)
- GI50 (NCI-H23): > 100 µM (inactive)
- GI50 (NCI-H460): > 100 µM (inactive)
- GI50 (OVCAR-5): > 100 µM (inactive)
- GI50 (OVCAR-8): > 100 µM (inactive)
- GI50 (PC-3): > 100 µM (inactive)
- GI50 (RPMI-8226): > 100 µM (inactive)
- GI50 (RXF 393): > 100 µM (inactive)
- GI50 (SK-MEL-28): > 100 µM (inactive)
- GI50 (SK-MEL-2): > 100 µM (inactive)
- GI50 (SK-MEL-5): > 100 µM (inactive)
- GI50 (SNB-19): > 100 µM (inactive)
- GI50 (SNB-75): > 100 µM (inactive)
- GI50 (SR): > 100 µM (inactive)
- GI50 (SW-620): > 100 µM (inactive)
- GI50 (T47D): 23.9 µM (inactive)
- GI50 (TK-10): > 100 µM (inactive)
- GI50 (U-251): > 100 µM (inactive)
- GI50 (UACC-257): > 100 µM (inactive)
- GI50 (UACC-62): > 100 µM (inactive)
- GI50 (UO-31): > 100 µM (inactive)
